Data on 17 compounds can be found in patent US9120749B2, “Quinoline derivatives and MELK inhibitors containing the same” (ONCOTHERAPY SCIENCE, INC., priority 2010, dated 2015).

Structures are written as SMILES. Structures can show the parent of a compound that is named as a salt. Where two headings read alike, the source gives them in different places.

Test [1] concerns the target MELK (Homo sapiens, UniProt Q14680). Briefly: Kinase assay: MELK activity, phosphorylation of FITC-labeled histone H3 peptide measured by IMAP fluorescence polarization. To be noted: MELK kinase assay, IMAP fluorescence polarization, 50 micro-M ATP; read-out: IC50 (μM) (kinase assay). The format is biochemical. In outline: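 Fluorescence polarization was measured 0.5 h (room temperature) after quenching with threefold volume of progressive binding solution. Test compounds from 12.5 mM DMSO stocks were assayed at 1% DMSO.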
(In general: Polarisation of emitted light reports the rotation of a fluorescent probe.)

Test [2] has as its system 22Rv1 cells. In words: Cell-based assay: anti-proliferative activity, Cell Counting Kit-8, 72 hours (22Rv1).
Test [3] relates to A549 cells. Briefly: Cell-based assay: anti-proliferative activity, Cell Counting Kit-8, 72 hours (A549). To be noted: 72 hours. In outline:
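Cell Counting Kit-8 read-out of A549 growth after 72 hours of inhibitor exposure, cells plated in 96-well format. Values reported as IC50.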

The test system of test [4] is T47D cells. In words: Cell-based assay: anti-proliferative activity, Cell Counting Kit-8, 72 hours (T47D). In outline:
(§1)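 Proliferation read with Cell Counting Kit-8 after 72 hours of inhibitor treatment, from seeding of 2,000–3,000 cells/well. Lines: T47D, A549, BT-549; HT-1197, lacking MELK by western blot, served as negative control. IC50 derived.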

The test system of test [5] is DU4475 cells. In words: Cell-based assay: anti-proliferative activity, Cell Counting Kit-8, 72 hours (DU4475).
Test [6] concerns HT-1197 cells. Briefly: Cell-based assay: anti-proliferative activity, Cell Counting Kit-8, 72 hours (HT-1197, negative control without MELK expression). Conditions: HT1197 cells (negative control, no MELK expression), 72 hours. In outline:
as §1

MELK, sequence (Q14680 whole entry, looked up): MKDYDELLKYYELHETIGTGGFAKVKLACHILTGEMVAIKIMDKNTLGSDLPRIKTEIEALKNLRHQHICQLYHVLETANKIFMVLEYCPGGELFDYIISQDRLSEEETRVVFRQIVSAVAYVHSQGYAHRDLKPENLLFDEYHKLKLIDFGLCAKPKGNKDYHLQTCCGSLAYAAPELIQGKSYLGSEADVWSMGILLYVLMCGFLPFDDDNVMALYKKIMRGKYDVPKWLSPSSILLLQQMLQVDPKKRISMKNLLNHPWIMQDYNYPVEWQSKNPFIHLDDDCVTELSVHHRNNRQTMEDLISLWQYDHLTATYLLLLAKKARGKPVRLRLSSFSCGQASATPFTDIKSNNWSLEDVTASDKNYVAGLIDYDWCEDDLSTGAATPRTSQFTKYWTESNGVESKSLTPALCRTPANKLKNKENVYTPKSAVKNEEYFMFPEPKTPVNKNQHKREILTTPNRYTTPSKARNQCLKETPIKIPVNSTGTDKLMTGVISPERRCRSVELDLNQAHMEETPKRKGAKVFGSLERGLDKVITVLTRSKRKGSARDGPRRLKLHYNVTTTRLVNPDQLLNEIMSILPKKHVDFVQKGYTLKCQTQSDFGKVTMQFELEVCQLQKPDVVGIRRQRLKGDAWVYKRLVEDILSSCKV

Take `CCN(C)C[C@H]1CC[C@H](Nc2c(C(C)=O)cnc3ccc(-c4cc(Cl)c(O)c(OC)c4)cc23)CC1` [Example 816, 1-(6-(3-chloro-4-hydroxy-5-methoxyphenyl)-4-(1R,4R)-4-((ethyl(methyl)amino)methyl)cyclohexylamino)quinolin-3-yl)ethanone hydrochloride]: the IC50 (commonly the concentration needed to halve the response being measured) in test [1] is 0.0027 µM; in test [2] (Homo sapiens, 22Rv1, 72 h) it was 0.44 µM; in test [3] (Homo sapiens, A549, 72 h), 0.25 µM; in test [4] (Homo sapiens, T47D, 72 h), 0.28 µM; in test [5] (Homo sapiens, DU-4475, 72 h) it was 0.36 µM; in test [6] (Homo sapiens, HT1197, 72 h), 7.3 µM.

As for `CCN(C)C[C@H]1CC[C@H](Nc2c(C(C)=O)cnc3ccc(-c4cc(Cl)c(O)c(Cl)c4)cc23)CC1` [Example 817, 1-(6-(3,5-dichloro-4-hydroxyphenyl)-4-((1R,4R)-4-((ethyl(methyl)amino)methyl)cyclohexylamino)quinolin-3-yl)ethanone], the IC50 in test [1] was 0.0014 µM; in test [2] (Homo sapiens, 22Rv1, 72 h), 0.12 µM; in test [3] (Homo sapiens, A549, 72 h), 0.15 µM; in test [4] (Homo sapiens, T47D, 72 h) it was 0.097 µM; in test [5] (Homo sapiens, DU-4475, 72 h), 0.074 µM; in test [6] (Homo sapiens, HT1197, 72 h), 11 µM.

In the case of `CC(=O)c1cnc2ccc(-c3cc(F)c(O)c(Cl)c3)cc2c1N[C@H]1CC[C@H](CN2CCCC(N)C2)CC1` (stereo partly drawn) [Example 818], the half-maximal inhibitory concentration (IC50) in test [1] worked out at 0.0043 µM; in test [2] (Homo sapiens, 22Rv1, 72 h), 0.064 µM; in test [3] (Homo sapiens, A549, 72 h), 0.14 µM; in test [4] (Homo sapiens, T47D, 72 h), 0.022 µM; in test [5] (Homo sapiens, DU-4475, 72 h), 0.071 µM; in test [6] (Homo sapiens, HT1197, 72 h) it was 2.7 µM.

Turning to `CN(C)CCN1CCC(Nc2c(C(=O)C3CC3)cnc3ccc(-c4cc(Cl)c(O)c(Cl)c4)cc23)CC1` [Example 819, cyclopropyl(6-(3,5-dichloro-4-hydroxyphenyl)-4-(1-(2-(dimethylamino)ethyl)piperidin-4-ylamino)quinolin-3-yl)methanone], the concentration for half-maximal inhibition (IC50) in test [1] worked out at 0.0024 µM; in test [2] (Homo sapiens, 22Rv1, 72 h), 0.64 µM; in test [3] (Homo sapiens, A549, 72 h) it was 0.44 µM; in test [4] (Homo sapiens, T47D, 72 h) it was 0.38 µM; in test [5] (Homo sapiens, DU-4475, 72 h), 0.17 µM; in test [6] (Homo sapiens, HT1197, 72 h) it was 3.3 µM.

Turning to `CN(C)CCN1CCC(Nc2c(C(=O)C3CC3)cnc3ccc(-c4cc(Cl)c(O)c(Cl)c4)cc23)CC1` [Example 820, cyclopropyl(6-(3,5-dichloro-4-hydroxyphenyl)-4-(1-(2-(dimethylamino)ethyl)piperidin-4-ylamino)quinolin-3-yl)methanone], the concentration for half-maximal inhibition (IC50) in test [1] was 0.0018 µM; in test [2] it was 0.82 µM; in test [3], 0.46 µM; in test [4] (72 hours) it was 0.32 µM; in test [5] it was 0.15 µM; in test [6], 2.9 µM.

On to `CC(=O)c1cnc2ccc(-c3cc(F)c(O)c(Cl)c3)cc2c1NC1CCN(CCN(C)C)CC1` [Example 821, 1-(6-(3-chloro-5-fluoro-4-hydroxyphenyl)-4-(1-(2-(dimethylamino)ethyl)piperidin-4-ylamino)quinolin-3-yl)ethanone], for which the IC50 in test [1] is 0.0053 µM; in test [2] (Homo sapiens, 22Rv1, 72 h) it was 0.25 µM; in test [3] (Homo sapiens, A549, 72 h) it was 0.59 µM; in test [4] (Homo sapiens, T47D, 72 h), 0.23 µM; in test [5] (Homo sapiens, DU-4475, 72 h) it was 0.17 µM; in test [6] (Homo sapiens, HT1197, 72 h), 3.3 µM.

For `CN(C)CCN1CCC(Nc2c(C(=O)C3CC3)cnc3ccc(-c4cc(F)c(O)c(Cl)c4)cc23)CC1` [Example 822, (6-(3-chloro-5-fluoro-4-hydroxyphenyl)-4-(1-(2-(dimethylamino)ethyl)piperidin-4-ylamino)quinolin-3-yl)(cyclopropyl)methanone], the half-inhibitory concentration (IC50) in test [1] was determined as 0.0031 µM; in test [2] (Homo sapiens, 22Rv1, 72 h), 0.43 µM; in test [3] (Homo sapiens, A549, 72 h), 0.48 µM; in test [4] (Homo sapiens, T47D, 72 h), 0.29 µM; in test [5] (Homo sapiens, DU-4475, 72 h) it was 0.16 µM; in test [6] (Homo sapiens, HT1197, 72 h), 2.5 µM.

`CC(=O)c1cnc2ccc(-c3cc(Cl)c(O)c(Cl)c3)cc2c1NC1CCN(CCN(C)C)CC1` [Example 823, 1-(6-(3,5-dichloro-4-hydroxyphenyl)-4-(1-(2-(dimethylamino)ethyl)piperidin-4-ylamino)quinolin-3-yl)ethanone]: the half-inhibitory concentration (IC50) amounted to 0.0027 µM in test [1]; 0.32 µM in test [2] (Homo sapiens, 22Rv1, 72 h); 0.45 µM in test [3] (Homo sapiens, A549, 72 h); 0.21 µM in test [4] (Homo sapiens, T47D, 72 h); 0.16 µM in test [5] (Homo sapiens, DU-4475, 72 h); 2.6 µM in test [6] (Homo sapiens, HT1197, 72 h).

Regarding `CCC(=O)c1cnc2ccc(-c3cc(Cl)c(O)c(Cl)c3)cc2c1Nc1ccc(N2CCCC(N)C2)nc1` (stereo not drawn) [Example 824, 1-(4-(6-(3-aminopiperidin-1-yl)pyridin-3-ylamino)-6-(3,5-dichloro-4-hydroxyphenyl)quinolin-3-yl)propan-1-one], the half-maximal inhibitory concentration (IC50) in test [1] worked out at 0.0016 µM; in test [2] (Homo sapiens, 22Rv1, 72 h), 0.026 µM; in test [3] (Homo sapiens, A549, 72 h) it was 0.036 µM; in test [4] (Homo sapiens, T47D, 72 h) it was 0.021 µM; in test [5] (Homo sapiens, DU-4475, 72 h), 0.026 µM; in test [6] (Homo sapiens, HT1197, 72 h) it was 0.28 µM.

Consider `CCC(=O)c1cnc2ccc(-c3cc(F)c(O)c(Cl)c3)cc2c1Nc1ccc(N2CCCC(N)C2)nc1` (stereo not drawn) [Example 825, 1-(4-(6-(3-aminopiperidin-1-yl)pyridin-3-ylamino)-6-(3-chloro-5-fluoro-4-hydroxyphenyl)quinolin-3-yl)propan-1-one], for which the IC50 stood at 0.0018 µM in test [1]; 0.016 µM in test [2] (Homo sapiens, 22Rv1, 72 h); 0.017 µM in test [3] (Homo sapiens, A549, 72 h); 0.01 µM in test [4] (Homo sapiens, T47D, 72 h); 0.018 µM in test [5] (Homo sapiens, DU-4475, 72 h); 0.069 µM in test [6] (Homo sapiens, HT1197, 72 h).

`CC(=O)c1cnc2ccc(-c3cc(F)c(O)c(Cl)c3)cc2c1N[C@H]1CCC[C@@H](CN(C)C)C1` [Example 826, 1-(6-(3-chloro-5-fluoro-4-hydroxyphenyl)-4-((1S,3R)-3-((dimethylamino)methyl)cyclohexylamino)quinolin-3-yl)ethanone hydrochloride]: the half-maximal inhibitory concentration (IC50) in test [1] worked out at 0.0083 µM; in test [2] (Homo sapiens, 22Rv1, 72 h), 0.48 µM; in test [3] (Homo sapiens, A549, 72 h), 0.54 µM; in test [4] (Homo sapiens, T47D, 72 h), 0.25 µM; in test [5] (Homo sapiens, DU-4475, 72 h), 0.22 µM; in test [6] (Homo sapiens, HT1197, 72 h) it was 1.9 µM.

Regarding `CC(=O)c1cnc2ccc(-c3cc(Cl)c(O)c(Cl)c3)cc2c1N[C@H]1CCC[C@@H](CN(C)C)C1` [Example 827, 1-(6-(3,5-dichloro-4-hydroxyphenyl)-4-((1S,3R)-3-((dimethylamino)methyl)cyclohexylamino)quinolin-3-yl)ethanone hydrochloride], the IC50 in test [1] was 0.0033 µM; in test [2] (Homo sapiens, 22Rv1, 72 h) it was 0.43 µM; in test [3] (Homo sapiens, A549, 72 h) it was 0.51 µM; in test [4] (Homo sapiens, T47D, 72 h), 0.49 µM; in test [5] (Homo sapiens, DU-4475, 72 h), 0.2 µM; in test [6] (Homo sapiens, HT1197, 72 h), 5.9 µM.

Turning to `CN1CCN(CCc2cccc(Nc3c(C(=O)C4CC4)cnc4ccc(-c5cc(F)c(O)c(Cl)c5)cc34)c2)CC1` [Example 828, (6-(3-chloro-5-fluoro-4-hydroxyphenyl)-4-(3-(2-(4-methylpiperazin-1-yl)ethyl)phenylamino)quinolin-3-yl)(cyclopropyl)methanone], the 50% inhibitory concentration (IC50) in test [1] was determined as 0.017 µM; in test [2] (Homo sapiens, 22Rv1, 72 h), 0.72 µM; in test [3] (Homo sapiens, A549, 72 h), 0.23 µM; in test [4] (Homo sapiens, T47D, 72 h) it was 5.7 µM; in test [5] (Homo sapiens, DU-4475, 72 h), 0.16 µM; in test [6] (Homo sapiens, HT1197, 72 h), 9.5 µM.

For the compound `CN1CCN(CCc2cccc(Nc3c(C(=O)C4CC4)cnc4ccc(-c5cc(Cl)c(O)c(Cl)c5)cc34)c2)CC1` [Example 829, cyclopropyl(6-(3,5-dichloro-4-hydroxyphenyl)-4-(3-(2-(4-methylpiperazin-1-yl)ethyl)phenylamino)quinolin-3-yl)methanone], the IC50 in test [1] came out at 0.0051 µM; in test [2] (Homo sapiens, 22Rv1, 72 h) it was 0.23 µM; in test [3] (Homo sapiens, A549, 72 h), 0.087 µM; in test [4] (Homo sapiens, T47D, 72 h), 0.7 µM; in test [5] (Homo sapiens, DU-4475, 72 h) it was 0.057 µM; in test [6] (Homo sapiens, HT1197, 72 h), 5.7 µM.

For the compound `CC(=O)c1cnc2ccc(-c3cc(F)c(O)c(Cl)c3)cc2c1Nc1cccc(CCN2CCN(C)CC2)c1` [Example 830, 1-(6-(3-chloro-5-fluoro-4-hydroxyphenyl)-4-(3-(2-(4-methylpiperazin-1-yl)ethyl)phenylamino)quinolin-3-yl)ethanone], the IC50 was determined as 0.019 µM in test [1]; 1.3 µM in test [2] (Homo sapiens, 22Rv1, 72 h); 0.73 µM in test [3] (Homo sapiens, A549, 72 h); 1.5 µM in test [4] (Homo sapiens, T47D, 72 h); 0.26 µM in test [5] (Homo sapiens, DU-4475, 72 h); 15 µM in test [6] (Homo sapiens, HT1197, 72 h).

For `CC(=O)c1cnc2ccc(-c3cc(Cl)c(O)c(Cl)c3)cc2c1Nc1cccc(CCN2CCN(C)CC2)c1` [Example 831, 1-(6-(3,5-dichloro-4-hydroxyphenyl)-4-(3-(2-(4-methylpiperazin-1-yl)ethyl)phenylamino)quinolin-3-yl)ethanone], the IC50 came out at 0.0054 µM in test [1]; 0.83 µM in test [2] (Homo sapiens, 22Rv1, 72 h); 0.32 µM in test [3] (Homo sapiens, A549, 72 h); 1.1 µM in test [4] (Homo sapiens, T47D, 72 h); 0.12 µM in test [5] (Homo sapiens, DU-4475, 72 h); 11 µM in test [6] (Homo sapiens, HT1197, 72 h).

For the compound `CC(=O)c1cnc2ccc(-c3cc(F)c(O)c(Cl)c3)cc2c1N[C@H]1CCC[C@@H](CN2CCN(C)CC2)C1` [Example 832, 1-(6-(3-chloro-5-fluoro-4-hydroxyphenyl)-4-((1S,3R)-3-((4-methylpiperazin-1-yl)methyl)cyclohexylamino)quinolin-3-yl)ethanone hydrochloride], the half-maximal inhibitory concentration (IC50) turned out to be 0.009 µM in test [1]; 0.44 µM in test [2] (Homo sapiens, 22Rv1, 72 h); 0.26 µM in test [3] (Homo sapiens, A549, 72 h); 0.17 µM in test [4] (Homo sapiens, T47D, 72 h); 0.24 µM in test [5] (Homo sapiens, DU-4475, 72 h); 0.79 µM in test [6] (Homo sapiens, HT1197, 72 h).
